The source of these data is DBAASP.

≈ marks a conversion by molar mass, not a printed value. Where “and” joins values, the source holds several entries; their conditions need not be identical. Identical values can stand only once.

Some test systems named below: Escherichia coli E423-17; Escherichia coli K-12; Escherichia coli; Pseudomonas aeruginosa; Staphylococcus aureus; Streptococcus pyogenes; Vibrio alginolyticus; Vibrio fluvialis; Vibrio parahaemolyticus; Aeromonas hydrophila.
Common to all, as to test: ≥ marks a high value that may be exact or a test limit, other limits are often not marked, values filed in µg/mL are converted to µM
In experiment [1] the test system is Staphylococcus aureus USA 300.
Experiment [2] concerns Staphylococcus epidermidis 1457.
Experiment [3] has as its system Pseudomonas aeruginosa CGMCC 1.2421.
The subject of experiment [4] is Staphylococcus epidermidis CGMCC 1.4260.
Experiment [5] concerns Staphylococcus aureus CGMCC 1.8721.
Experiment [6] deals with Pseudomonas aeruginosa E411-17.
Experiment [7] relates to Staphylococcus aureus UAMS-1.
Experiment [8] relates to Escherichia coli ATCC 25922.
For experiment [9], the system named is Enterococcus faecium V284-17.
Experiment [10] has as its system Klebsiella pneumoniae E406-17.
Experiment [11] concerns Enterococcus faecium ATCC 51559.
In experiment [12] the test system is Acinetobacter baumannii B28-16.
Experiment [13] deals with Pseudomonas aeruginosa PAO1.
For experiment [14], the system named is Klebsiella pneumoniae CGMCC 1.1736.
Experiment [15] has as its system Escherichia coli CGMCC 1.8732.
Experiment [16] deals with Klebsiella pneumoniae ATCC 13883.
Experiment [17] has as its system Staphylococcus aureus Q14-0320.
Experiment [18] relates to Staphylococcus aureus ATCC 29213.
The subject of experiment [19] is Pseudomonas aeruginosa ATCC 27853.
The test system of experiment [20] is Acinetobacter baumannii Q13-0717.
Experiment [21] has as its system Acinetobacter baumannii Q12-0809.
For experiment [22], the system named is Campylobacter jejuni NCTC 11351.
For experiment [23], the system named is Klebsiella pneumoniae NCTC 13442.
The subject of experiment [24] is Klebsiella pneumoniae Q14-0095.
Experiment [25] deals with Pseudomonas aeruginosa Q14-0208.
Experiment [26] concerns Staphylococcus aureus NCTC 12493.
The subject of experiment [27] is Klebsiella pneumoniae ATCC 700603.
Experiment [28] relates to Streptococcus sanguinis ATCC 10556.
In experiment [29] the test system is Staphylococcus aureus ATCC 25923.
Experiment [30] concerns Aggregatibacter actinomycetemcomitans ATCC 29522.
Experiment [31] concerns Fusarium solani MTCC 10158.
The test system of experiment [32] is Streptococcus gordonii ATCC 10558.
The test system of experiment [33] is Streptococcus mutans UA159.
Experiment [34] has as its system Streptococcus mutans GS-5.
For experiment [35], the system named is Streptococcus sanguinis ATCC 49295.

On to `CC[C@H](C)[C@H](NC(=O)[C@H](CCCNC(=N)N)NC(=O)[C@H](CCC(N)=O)NC(=O)[C@@H](NC(=O)[C@@H](NC(=O)[C@H](CCCNC(=N)N)NC(=O)[C@H](CCCCN)NC(=O)[C@H](Cc1ccccc1)NC(=O)CN)[C@@H](C)CC)C(C)C)C(=O)N[C@@H](CCCCN)C(=O)N[C@@H](CC(=O)O)C(=O)N[C@@H](Cc1ccccc1)C(=O)N[C@@H](CC(C)C)C(=O)N[C@@H](CCCNC(=N)N)C(=O)N[C@@H](CC(N)=O)C(=O)N[C@@H](CC(C)C)C(=O)N[C@H](C(N)=O)C(C)C` [GFKRIVQRIKDFLRNLV], for which the MIC was 7.5 µM and 3.1 µM and 7 µM in experiment [1]; 1.6 µM (≈ 3.36 µg/mL) in [2]; 16 µM (≈ 33.6 µg/mL) in the experiment with Escherichia coli E423-17; 6.25 µM (≈ 13.1 µg/mL) in experiment [3]; 3.12 µM (≈ 6.57 µg/mL) in [4]; 6.25 µM (≈ 13.1 µg/mL) in [5]. Further, the MIC was 16 µM (≈ 33.6 µg/mL) in [6]; 7 µM and 3.1 µM in experiment [7]; 7.5 µM and 14 µM in the experiment with Escherichia coli K-12; 4.4 µM (≈ 9.25 µg/mL) in experiment [8]; 2 µM (≈ 4.2 µg/mL) in experiment [9]; no less than 32 µM in experiment [10]. Besides, the MIC is 6.25 µM (≈ 13.1 µg/mL) in experiment [11]; 1.6 µM and 4 µM in experiment [12]; 25 µM (≈ 52.5 µg/mL) in experiment [13]; 6.25 µM (≈ 13.1 µg/mL) in experiment [14]; 6.25 µM (≈ 13.1 µg/mL) in experiment [15]; 3.1 µM (≈ 6.51 µg/mL) in [16].

In the case of `C[C@H](NC(=O)[C@H](CCCN=C(N)N)NC(=O)[C@H](Cc1ccc(O)cc1)NC(=O)[C@H](Cc1cnc[nH]1)NC(=O)[C@H](Cc1c[nH]c2ccccc12)NC(=O)[C@H](CCCN=C(N)N)NC(=O)[C@H](Cc1c[nH]c2ccccc12)NC(=O)[C@H](C)NC(=O)[C@@H](NC(=O)CN)[C@@H](C)O)C(=O)N[C@@H](CCCN=C(N)N)C(=O)N[C@@H](CO)C(=O)O` [GTAWRWHYRARS], the MIC was no less than 82.8 µM in experiment [17]; greater than 82.8 µM in experiment [18]; 82.8 µM (≈ 128 µg/mL) in experiment [19]; no less than 82.8 µM in [20]; no less than 82.8 µM in experiment [21]; no less than 82.8 µM in experiment [22]. For the same molecule, the MIC is 82.8 µM (≈ 128 µg/mL) in the experiment with Escherichia coli; no less than 82.8 µM in experiment [23]; no less than 82.8 µM in experiment [24]; no less than 82.8 µM in experiment [25]; no less than 82.8 µM in experiment [26]; greater than 82.8 µM in experiment [27]. In addition, the MIC in the experiment with Pseudomonas aeruginosa is greater than 331 µM.

With `CC[C@H](C)[C@H](NC(C)=O)C(=O)N[C@@H](Cc1c[nH]c2ccccc12)C(=O)N[C@@H](CC(C)C)C(=O)N[C@H](C(=O)N[C@@H](C)C(=O)N[C@@H](CC(C)C)C(=O)N[C@@H](CCCCN)C(=O)N[C@@H](Cc1ccccc1)C(=O)N[C@@H](CC(C)C)C(=O)NCC(=O)N[C@@H](CCCCN)C(=O)N[C@@H](CC(N)=O)C(=O)N[C@@H](CC(C)C)C(=O)NCC(=O)N[C@@H](CCCCN)C(=O)N[C@@H](CC(C)C)C(=O)N[C@@H](C)C(=O)N[C@@H](CCCCN)C(=O)N[C@@H](CCC(N)=O)C(=O)N[C@@H](CCC(N)=O)C(=O)N[C@@H](CC(C)C)C(=O)N[C@@H](C)C(=O)N[C@@H](CCCCN)C(=O)N[C@@H](CC(C)C)C(N)=O)[C@@H](C)O` [IWLTALKFLGKNLGKLAKQQLAKL], the MIC is 5.7 µM (≈ 15.6 µg/mL) in experiment [28], 0.71 µM (≈ 1.94 µg/mL) in [8], 2.85 µM (≈ 7.8 µg/mL) in [29] and 11.4 µM (≈ 31.2 µg/mL) in experiment [30].

As for `CC[C@H](C)[C@H](NC(=O)[C@H](C)NC(=O)[C@H](CC(=O)O)NC(=O)[C@H](CCCN=C(N)N)NC(=O)[C@@H](NC(=O)[C@@H](N)CCCN=C(N)N)[C@@H](C)CC)C(=O)N[C@@H](C)C(=O)N[C@@H](Cc1cnc[nH]1)C(=O)NCC(=O)N[C@@H](Cc1ccc(O)cc1)C(=O)N[C@H](C(=O)N[C@H](C(=O)N[C@@H](CC(=O)O)C(=O)N[C@@H](CCCCN)C(=O)N[C@H](C(=O)O)C(C)C)C(C)C)[C@@H](C)CC` [RIRDAIAHGYIVDKV], the MIC against Staphylococcus aureus is greater than 145 µM; with Streptococcus pyogenes, no less than 72.4 µM; against Vibrio alginolyticus, 18.1 µM (≈ 31.3 µg/mL); with Vibrio fluvialis it was no less than 72.4 µM; against Vibrio parahaemolyticus, no less than 145 µM; in the experiment with Aeromonas hydrophila, 18.1 µM (≈ 31.3 µg/mL). Also, the MIC against Escherichia coli was greater than 145 µM.

For `NCCCC[C@H](NC(=O)[C@H](CCCCN)NC(=O)[C@H](CCCN=C(N)N)NC(=O)[C@H](CCCN=C(N)N)NC(=O)[C@H](CCCN=C(N)N)NC(=O)[C@H](CCCN=C(N)N)NC(=O)[C@H](CCC(N)=O)NC(=O)[C@H](CCCN=C(N)N)NC(=O)[C@H](CCCN=C(N)N)NC(=O)[C@H](CCCCN)NC(=O)[C@H](CCCCN)NC(=O)[C@@H](N)CCCN=C(N)N)C(=O)N[C@@H](CCCN=C(N)N)C(=O)N[C@@H](CCCN=C(N)N)C(=O)N[C@@H](CCC(N)=O)C(=O)N[C@@H](CCCN=C(N)N)C(=O)N[C@@H](CCCN=C(N)N)C(=O)N[C@@H](CCCN=C(N)N)C(=O)O` [RKKRRQRRRRKKRRQRRR], the MIC in experiment [31] was 7.07 µM and 21.2 µM.

In the case of `CC(C)C[C@H](NC(=O)[C@H](CCCN=C(N)N)NC(=O)[C@H](Cc1ccccc1)NC(=O)[C@H](Cc1ccccc1)NC(=O)[C@@H](N)[C@@H](C)O)C(=O)N[C@@H](Cc1ccccc1)C(=O)N[C@@H](CC(N)=O)C(=O)N[C@@H](CCCN=C(N)N)C(=O)N[C@@H](CO)C(=O)N[C@@H](Cc1ccccc1)C(=O)N[C@H](C(=O)NCC(=O)N[C@@H](CCCN=C(N)N)C(=O)N[C@@H](CCCN=C(N)N)C(=O)N[C@@H](CCCN=C(N)N)C(=O)N[C@@H](CCCN=C(N)N)C(=O)N[C@@H](CO)C(=O)N[C@H](C(=O)N[C@@H](CCC(N)=O)C(=O)N[C@@H](Cc1c[nH]c2ccccc12)C(=O)N[C@@H](CS)C(=O)N[C@@H](C)C(=O)O)C(C)C)[C@@H](C)O` [TFFRLFNRSFTGRRRRSVQWCA], the MIC in [32] was 17.8 µM (≈ 49.8 µg/mL); in experiment [33] it was 3.82 µM (≈ 10.7 µg/mL); in experiment [34], 4.46 µM (≈ 12.4 µg/mL); in experiment [35], no less than 35.7 µM.
